Experimental data taken from patent publication US20070299084A1, “Indole Derivatives Useful for Treating Resistance to Antitumor Agents” (NIKEM RESE S.R.L., priority 2004, published 2007).
Like-named read-outs stand apart in the source and are kept apart here. Marks after values point to notes of the source that are not given here. Values belong to the molecule of their own block, whether it stands above or below them.

What was measured:
[1] = system: HepG2 cells (human hepatic carcinoma); assay: Antiproliferative activity, 48 h treatment, ATPlite luminescence assay, HepG2; format: cell-based
Method: HepG2: maintained in EMEM medium+10% FCS.
(§1) 24 hours after seeding, an aliquot (10 μl) of the drug at the various concentrations is added (for each concentration there are 3 replicates). After 48 hours of treatment the antiproliferative effect is evaluated with a luminescence assay (Perkin Elmer Life Sciences ATPlite):
(§2) 50 μl of a lysis solution are added to each well followed by an equal volume of a solution containing luciferase and D-luciferin. The ATP present in all the metabolically active cells brings about the transformation reaction of D-luciferin, catalysed by luciferase, to produce a luminescent signal as described in the following scheme: ATP+D-luciferin+O2→Oxyluciferin+AMP+PPi+CO2+Light
(§3) The luminescence produced (expressed in counts per second, CPS) is measured by means of a microplate scintillation analyzer (Perkin Elmer Life Sciences Top Count).
(§4) Percentage inhibition of luminescence in the treated cells compared to the control is calculated; concentration-response curves are then analysed using Grafit v.5.0.

[2] = system: HT29/Mit cells (mitoxantrone-resistant human colon carcinoma, BCRP overexpression); assay: Antiproliferative activity, 72 h treatment, SRB assay, HT29/Mit
Method: HT29 and HT29/Mit (line obtained by prolonged exposure to mitoxantrone, and characterised by overerexpression of BCRP, which confers cross resistance to topotecan, irinotecan and to its metabolite SN38): maintained in McCoy 5A medium+10% FCS.
(§5) The cells (HT29 and HT29/Mit:. 40,000 cells/ml, LoVo, LoVo/Dx and HCT116: 50,000 cells/ml) are seeded in 100 μl of the respective culture media in 96-well plates. 24 hours after seeding, an aliquot (10 μl) of drug at the various concentrations is added. In the samples in which the effect of the combination of two compounds is to be tested the inhibitor is added immediately before the cytotoxic. For each dose or combination of doses/drugs the effect of the treatment is determined in 4-8 replicates.
(§6) After 72 hours of treatment the antiproliferative effect is evaluated using the sulforhodamine B (SRB) assay: the cells are fixed by adding 25 μl of 50% TCA to each well and left for 1 hour at 4° C. After washing them with water and allowing them to dry, 100 μl of 0.4% SRB in 1% acetic acid are added and left for 30 minutes at room temperature. After 4 washes in 1% acetic acid, they are left to dry, then the dye fixed by the proteins is dissolved under basic conditions with 100 μl 10 mM cold Tris and the solution is read using a spectrophotometer at 550 nm.
(§7) Percentage cell growth is calculated as the optical density of treated samples compared to the optical density of controls (untreated cells).
(§8) The Combination Index (C.I.) was determined according to Kern's method, 1988 (who continued from Drewinko B, 1976) (Kern D. H., Cancer Res. 48, 117-121, 1988; Drewinko B., Cancer Biochem. Biophys. 1, 187-195, 1976) by means of the following formula: […], where SFa and SFb are the fractions of cells surviving to treatment with compound a and b, respectively; SFab is the fraction surviving to the combination of compounds a and b.

[3] = system: HT29 cells (human colon carcinoma); assay: Antiproliferative activity, 72 h treatment, SRB assay, HT29; format: cell-based; settings: 72 h. treatment, read-out: Antiproliferative activity (IC50 ± S.D., μM) HT-29
[4] = target: Vacuolar ATPase (bafilomycin sensitive ATPase activity) (Homo sapiens, UniProt P27449+Q13488); assay: Vacuolar ATPase inhibition in human osteoclastoma (hOc) microsomal fraction; format: biochemical; settings: 30 min, 37° C., read-out: v-ATPase Activity (IC50, μM) hOc
Method: 1.1 Determination of Vacuolar ATPase Inhibition in Human Osteoclastoma (hOc)
Osteoclast-like giant cells isolated from human osteoclastoma are homogenized using a glass-teflon homogeniser (1000 rpm) and the material is centrifuged for 20 minutes at 6000 g. The resultant pellet is resuspended and centrifuged at 100000 g for 60 minutes to sediment the microsomal fraction. The resultant pellet is resuspended in medium at pH 7.4 and stored under liquid nitrogen.
Inhibition of bafilomycin sensitive ATPase activity is assayed by measuring the release of inorganic phosphate during 30 minutes of incubation, at 37° C., of the human osteoclastoma microsomal fraction in 96-well plates. The reaction medium contains 1 mM ATP, 10 mM Hepes-Tris buffer pH 8, 50 mM KCl, 5 μM valinomycin, 5 μM nigericin, 1 mM CDTA-Tris, 100 μM ammonium molybdate, 0.2 M sucrose and the microsomal fraction ([…] protein/ml). The reaction is initiated by adding MgSO4 and terminated, after 30 minutes, by adding 4 volumes of the reagent malachite green, prepared according to Chan K., Anal. Biochem. 157, 375-380, 1986.

H460 primary tumor = assay: H460 human non-small cell lung carcinoma xenograft, antitumor activity on the primary tumor; format: in vivo, athymic Swiss nude mice; settings: H460 s.c., p.o. for 8 weeks, topotecan 1 mg/kg, compound of example 2 30 mg/kg
Method: Female athymic Swiss nude mice (8-10 weeks old) (Charles River, Calco, Italy) were used for the experiments, as described above.
H460 cells were injected i.p. into nude mice, adapted to grow as ascitis and maintained in vivo by i.p. passages (5×10^6 cells/mouse in 0.5 ml PBS) (Pratesi G., Br. J. Cancer 63, 71-74, 1991). Briefly, cells were collected from the donor mice about 7 days after inoculum. After washing, cell number and viability were determined by trypan blue exclusion. Such procedure allowed to obtain a single cell suspension easily available for s.c or i.v. injection.
(§9) The effects of the compounds of the invention and/or topotecan on the growth of primary tumors and spontaneous lung metastasis were tested in mice inoculated s.c. in the right flank with H460 ascitic tumor cells (2×10^6/mouse). Each control or drug-treated group included 9-11 mice. The s.c. tumor growth was followed by biweekly measurements of tumor diameters with a Vernier caliper. Drug treatment was delivered orally, for 8 weeks, from day 1. Topotecan was delivered at the dose of 1 mg/kg and compounds of the invention were delivered at the dose of 30 mg/kg; in the combination group the compounds of the invention were delivered almost 1 hour after topotecan treatment. Control mice were solvent-treated orally in parallel with drug treatments.
(§10) Drug efficacy was assessed as mean percentage tumor weight inhibition in drug-treated versus control mice expressed as tumor weight inhibition % (TWI %)=100−(mean tumor weight treated/mean tumor weight control×100), evaluated during and after drug treatment. Drug tolerability was assessed in tumor-bearing mice as either lethal toxicity, i.e., any death in treated mice occurring before any control death, or percentage body weight loss (BWL %)=100−(body weight on day x/body weight on day 1×100), where x represents a day after or during the treatment period.

[5] = Drug tolerability in H460 tumor-bearing mice (lethal toxicity); settings: topotecan 1 mg/kg, compound of example 2 30 mg/kg p.o., 8 weeks
Method: as §9, §10

[6] = system: HT29/Mit human colon carcinoma xenografts; assay: HT29/Mit human colon carcinoma xenografts, antitumor activity; format: in vivo, athymic Swiss nude mice; settings: HT29/Mit xenograft, p.o.; topotecan 15 mg/Kg every 4 days for 3 administrations; compound of example 2 30 mg/kg; alone or combined
Method: Female athymic Swiss nude mice (8-10 weeks old) (Charles River, Calco, Italy) were used for the experiments. The animals were maintained at constant temperature and humidity, and were allowed to eat and drink freely. The experimental protocol was approved by the Ethics Committee for Animal Experimentation of the Istituto Nazionale Tumori of Milan.
The antitumour effectiveness of the compounds of the invention under discussion was tested on athymic mouse models implanted with HT29 and/or HT29/Mit tumour cells: this latter variety is highly resistant to topotecan treatment. The tumour cells were implanted in vivo via subcutaneous injection of 10^7 cells taken from in vitro cultures. Randomized groups of five mice with bilateral subcutaneous tumours were used for the experiment.
Topotecan or other known antitumour agents (dissolved in distilled water or an appropriate solvent) and the compounds of the invention (dissolved in Cremophor EL:ethanol:saline solution in the proportions 5:5:90, or in an appropriate solvent) were administered orally from the third day, alone or in combination, in agreement with a treatment scheme selected in an appropriate manner depending on the type of compound to be studied.
The weight (or volume) of the tumour in treated mice compared to controls is represented graphically on the y-axis against time (x-axis).

[7] = system: H460 spontaneous lung metastasis; assay: H460 xenograft, spontaneous lung metastasis (antimetastatic activity); format: in vivo, athymic Swiss nude mice; settings: topotecan 1 mg/kg, compound of example 2 30 mg/kg p.o.
Method: At day 63, tumor-bearing mice were sacrificed by cervical dislocation and their lungs were removed and weighed. Lung lobes were spliced between two glass slides and the metastatic nodules were macroscopically counted against a bright light (Corti C, J. Cancer Res. Clin. Oncol. 122, 154-60, 1996). […] Reading of metastasis was performed by two independent observers, unaware of the experimental group, with an interobserver reproducibility >95%. The metastatic nature of these areas was confirmed by histological analysis of digital images obtained by Image Analysis System software (Delta System, Rome, Italy).

[8] = system: LoVo cells (human colon carcinoma); assay: Antiproliferative activity, 72 h treatment, SRB assay, LoVo; format: cell-based; settings: 72 h. treatment; read-out: Antiproliferative activity (IC50 ± S.D., μM) LoVo
Description: (§11) LoVo and LoVo/Dx (line obtained by prolonged exposure to doxorubicin and characterised by overerexpression of P-glycoprotein, which confers resistance to doxorubicin): maintained in HAM-F12 medium+10% FCS.

[9] = system: HCT116 cells (human colon carcinoma); assay: Antiproliferative activity, 72 h treatment, SRB assay, HCT116; format: cell-based; settings: 72 h. treatment; read-out: Antiproliferative activity (IC50 ± S.D., μM) HCT116
Method: HCT116 maintained in RPMI 1640 medium+10% FCS.
as §5, §6, §7, §8

[10] = system: SK-N-BE(2) cells (human neuroblastoma); assay: Antiproliferative activity, 48 h treatment, ATPlite luminescence assay, SK-N-BE(2); format: cell-based; settings: 48 h. treatment; read-out: Antiproliferative activity (IC50 ± S.D., μM) SK-N-BE(2)
Method: (§12) SH-SY5Y and SK-N-BE(2): maintained in HAM-F12 medium+10% FCS.
as §1, §2, §3, §4

[11] = system: A2780 cells (human ovarian carcinoma); assay: Antiproliferative activity, 48 h treatment, ATPlite luminescence assay, A2780; format: cell-based; settings: 48 h. treatment; read-out: Antiproliferative activity (IC50 ± S.D., μM) A2780
Method: as §1, §2, §3, §4

[12] = system: LoVo/Dx cells (doxorubicin-resistant human colon carcinoma, P-glycoprotein overexpression); assay: Antiproliferative activity, 72 h treatment, SRB assay, LoVo/Dx; format: cell-based; settings: 72 h. treatment; read-out: Antiproliferative activity (IC50 ± S.D., μM) LoVo/Dx
Description: as §11

[13] = system: SH-SY5Y cells (human neuroblastoma); assay: Antiproliferative activity, 48 h treatment, ATPlite luminescence assay, SH-SY5Y; format: cell-based; settings: 48 h. treatment; read-out: Antiproliferative activity (IC50 ± S.D., μM) SHSY-5Y
Method: as §12, §1, §2, §3, §4

[14] = Homo sapiens, HepG2, read-out: Antiproliferative activity (IC50 ± S.D., μM) HepG2
[15] = Homo sapiens, HT-29, 72 h, read-out: Antiproliferative activity (IC50 ± S.D., μM) HT-29/Mit
[16] = read-out: Antiproliferative activity (IC50 ± S.D., μM) HepG2

Chain of Vacuolar ATPase (bafilomycin sensitive ATPase activity) (P38606 whole entry): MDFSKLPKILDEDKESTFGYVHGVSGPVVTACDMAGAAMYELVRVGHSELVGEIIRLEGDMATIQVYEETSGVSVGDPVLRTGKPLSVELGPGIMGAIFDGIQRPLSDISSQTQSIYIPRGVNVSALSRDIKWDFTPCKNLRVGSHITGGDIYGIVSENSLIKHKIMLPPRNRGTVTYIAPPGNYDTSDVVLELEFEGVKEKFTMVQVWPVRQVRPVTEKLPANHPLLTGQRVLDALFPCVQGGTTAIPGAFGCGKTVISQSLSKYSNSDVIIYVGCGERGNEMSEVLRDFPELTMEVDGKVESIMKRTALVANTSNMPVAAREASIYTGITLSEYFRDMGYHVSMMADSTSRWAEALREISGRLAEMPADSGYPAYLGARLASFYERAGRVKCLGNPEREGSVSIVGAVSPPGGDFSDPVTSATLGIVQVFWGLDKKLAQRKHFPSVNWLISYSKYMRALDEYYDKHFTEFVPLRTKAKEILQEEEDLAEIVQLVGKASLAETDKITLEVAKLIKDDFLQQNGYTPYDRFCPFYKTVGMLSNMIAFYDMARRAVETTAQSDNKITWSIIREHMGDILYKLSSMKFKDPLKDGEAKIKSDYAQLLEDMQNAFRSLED
Chain of Vacuolar ATPase (bafilomycin sensitive ATPase activity) (Q13488 whole entry): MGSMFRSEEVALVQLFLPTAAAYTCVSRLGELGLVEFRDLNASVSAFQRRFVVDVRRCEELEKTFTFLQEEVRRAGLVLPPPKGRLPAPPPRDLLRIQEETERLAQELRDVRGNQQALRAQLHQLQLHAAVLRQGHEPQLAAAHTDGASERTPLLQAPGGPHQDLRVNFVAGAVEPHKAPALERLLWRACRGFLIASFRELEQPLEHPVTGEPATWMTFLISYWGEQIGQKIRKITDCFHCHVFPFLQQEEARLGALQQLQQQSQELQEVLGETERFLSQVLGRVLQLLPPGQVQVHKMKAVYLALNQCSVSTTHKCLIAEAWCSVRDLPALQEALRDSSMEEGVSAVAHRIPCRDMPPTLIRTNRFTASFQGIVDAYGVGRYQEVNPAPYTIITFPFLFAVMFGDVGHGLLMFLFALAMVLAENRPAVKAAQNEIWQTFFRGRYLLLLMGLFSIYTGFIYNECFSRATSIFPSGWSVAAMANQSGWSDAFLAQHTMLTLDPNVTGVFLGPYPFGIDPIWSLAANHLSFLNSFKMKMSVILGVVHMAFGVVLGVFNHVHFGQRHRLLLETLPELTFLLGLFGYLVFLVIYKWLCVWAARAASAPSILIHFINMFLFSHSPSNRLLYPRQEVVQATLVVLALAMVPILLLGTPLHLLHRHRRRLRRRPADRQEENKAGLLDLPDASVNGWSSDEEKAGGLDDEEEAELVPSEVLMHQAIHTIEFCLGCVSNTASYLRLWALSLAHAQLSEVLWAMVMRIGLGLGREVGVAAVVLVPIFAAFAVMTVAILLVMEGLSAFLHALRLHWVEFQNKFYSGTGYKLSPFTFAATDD
Chain of Vacuolar ATPase (bafilomycin sensitive ATPase activity) (P27449 whole entry): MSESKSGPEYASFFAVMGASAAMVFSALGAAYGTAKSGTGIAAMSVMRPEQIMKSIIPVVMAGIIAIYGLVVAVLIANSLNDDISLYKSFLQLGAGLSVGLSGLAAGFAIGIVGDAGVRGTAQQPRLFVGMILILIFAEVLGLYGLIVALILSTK

IC50 [1, 14]: 0.71 ± 0.01 µM
IC50 ([3]; Homo sapiens, HT-29): 0.56 ± 0.26 µM
Compound: CCOc1cc(C(=O)NC2CC(C)(C)NC(C)(C)C2)ccc1-c1nc2cc(Cl)c(Cl)cc2[nH]1 [Example 3]
IC50 [2, 15]: 0.27 µM

IC50 [1, 14]: 0.92 ± 0.01 µM
IC50 ([3]; Homo sapiens, HT-29): 4.7 µM
Compound: COc1cc(C(=O)N(C)C2CC(C)(C)NC(C)(C)C2)ccc1-c1cc2cc(Cl)c(Cl)cc2[nH]1 [Example 6]
IC50 [2, 15]: 3.3 µM

IC50 ([3]; Homo sapiens, HT-29): 3.8 µM
Compound: CCOc1cc(C(=O)NC2CCN(C)CC2)ccc1-c1cc2cc(Cl)c(Cl)cc2[nH]1 [Example 5]
IC50 [2, 15]: 2.3 µM

IC50 ([3]; Homo sapiens, HT-29): 4.7 µM
Compound: CCOc1cc(C(=O)NC2CCNCC2)ccc1-c1cc2cc(Cl)c(Cl)cc2[nH]1 [Example 4]
IC50 [2, 15]: 3.6 µM

The next lines start with the molecule.

Compound: CO/C1=C\C(C)=C\[C@@H](C)[C@@H](O)[C@@H](C)C/C(C)=C/C=C/[C@H](OC)[C@@H]([C@@H](C)[C@@H](O)[C@H](C)[C@@]2(O)C[C@@H](O)[C@H](C)[C@@H](C(C)C)O2)OC1=O [Bafilomycin A1, reference compound]
IC50 [1, 16]: < 0.006 µM
IC50 [4]: 0.0001 µM
IC50 ([2]; read-out: Antiproliferative activity (IC50 ± S.D., μM) HT-29/Mit, 72 h. treatment): 0.005 µM
IC50 [3]: 0.003 ± 0.002 µM

Compound: CC[C@@]1(O)C(=O)OCc2c1cc1n(c2=O)Cc2cc3c(CN(C)C)c(O)ccc3nc2-1 [Topotecan, reference compound]
LCK (Log10 Cell Kill) (H460 primary tumor): 0.5
Max TWI (day 56) (Maximal Tumor weight inhibition achieved) (H460 primary tumor): 57* %
Max TWI (day 56) (Maximal Tumor weight inhibition achieved) (H460 primary tumor; listed as topotecan): 57%
Tox/Tot (any death in treated mice occurring before any control mice) [5]: 0/10
Inhibition of tumour growth [6]: 30-40%
Lung No. Metastasis (range) ([7]; day 63): 11 (4-23)
Lung Weight (mg) (mean ± S.D.) ([7]; day 63): 169 ± 16 mg
Lung No. Metastasis (range) ([7]; day 63, listed as topotecan): reduced
Lung metastasis Inhibition % ([7]; inhibition of number of metastasis vs controls): 58%
IC50 ([2]; Homo sapiens, HT-29, 72 h, read-out: IC50 for topotecan alone (FIG. 1 co-treatment experiment)): > 20 µM
IC50 ([3]; Homo sapiens, HT-29): 0.07 ± 0.01 µM

Compound: N.N.[Cl][Pt][Cl] [Cisplatin, reference compound]
IC50 [1, 16]: > 25 µM
IC50 [8]: 0.7 µM
IC50 [9]: 5.4 µM
IC50 [10]: 10.1 ± 3.5 µM
IC50 [3]: 6.8 µM
IC50 [11]: 8.1 ± 2.1 µM
IC50 [12]: 0.8 µM
IC50 [13]: 7.3 ± 3.3 µM

Compound: CO/C(=C\C=C\c1cc2cc(Cl)c(Cl)cc2[nH]1)C(=O)NC1CC(C)(C)N(C)C(C)(C)C1 [Example 1]
IC50 [1, 14]: 1.1 ± 0.1 µM
IC50 [2, 15]: 1 µM
IC50 ([3]; Homo sapiens, HT-29): 3.3 ± 0.4 µM
